In assay [1] the target is T1, human RET kinase (Homo sapiens, UniProt P07949).
T1 construct: purchased Carna 08-159
Description: RET Kinase Assay (LanthaScreen TR-FRET enzymatic assay). It is filed as biochemical. The conditions noted are these: 7 nM RET, 23 μM ATP. In outline: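 Human RET (7 nM) preincubated 15 min with compound in 50 mM HEPES pH 7.5, 0.0015% Brij-35, then reacted with 3 μM FAM-P2 peptide and 23 μM ATP for 1 h at 28° C.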

Assay [2] has as its target T2, BAF3-KIF5B-RET cells (Homo sapiens, UniProt P07949).
T2 construct: fused on or other part: P33176 (Kinesin-1 heavy chain)
Put plainly: BAF3-KIF5B-RET Cell proliferation assay (CellTiter-Glo, 72 hours). It is filed as cell-based. The following applies: growth inhibition, read-out: BA/F3-KIF5B-RET Cellular activity. As to the method: Compounds disclosed herein were tested for the inhibition of RET by a cancer cell proliferation assay commonly known as CellTiter-Glo assay. In this assay, a complete media was prepared by adding 10% fetal bovine serum to RPMI-1640 medium (Life technology) for BAF3-FIF5B-RET cells. BAF3-KIF5B-RET cells were added to each of 88 wells of a 96 well plate at a seeding density of 2,000 cells/well/95 μL. The cells were allowed to attach to the plate by incubating at 37° C. for 24 hours. The compound was dissolved in DMSO (SIGMA). A solution of test compound was prepared in complete media by serial dilution to obtain the following concentrations: 20 μM, 6.67 μM, 2.22 μM, 0.74 μM, 0.25 μM, 0.082 μM, 0.027 μM, 0.0091 μM and 0.0030 μM. The test compound solution (5 μL) was added to each of 80 cell-containing wells. The final concentrations of the compound were following: 1 μM, 0.33 μM, 0.11 μM, 0.037 μM, 0.012 μM, 0.0041 μM, 0.0014 μM, 0.00046 μM and 0.00015 μM. The final concentration of DMSO is 0.1%. To the 8 remaining cell-containing wells, only complete media (containing 0.1% DMSO) was added to form a control group in order to measure maximal proliferation. To the remaining 8 empty wells, complete media was added to for a vehicle control group in order to measure background. The plates were incubated at 37° C. for 72 hours. 50 μl of CellTiter-Glo® Reagent was added to each well. Mix contents for 2 minutes on an orbital shaker to induce cell lysis. Incubate at room temperature for 10 minutes to stabilize luminescent signal. Record luminescence on Paradigm. Cell viability (CV %) was calculated relative to vehicle (DMSO) treated control wells. The IC50 was calculated using GraphPad Prism.
(Cellular ATP, detected with luciferase, serves as a proxy for viable cell number.)

SMILES strings stand for the structures.

T1 sequence (P07949 29-1114): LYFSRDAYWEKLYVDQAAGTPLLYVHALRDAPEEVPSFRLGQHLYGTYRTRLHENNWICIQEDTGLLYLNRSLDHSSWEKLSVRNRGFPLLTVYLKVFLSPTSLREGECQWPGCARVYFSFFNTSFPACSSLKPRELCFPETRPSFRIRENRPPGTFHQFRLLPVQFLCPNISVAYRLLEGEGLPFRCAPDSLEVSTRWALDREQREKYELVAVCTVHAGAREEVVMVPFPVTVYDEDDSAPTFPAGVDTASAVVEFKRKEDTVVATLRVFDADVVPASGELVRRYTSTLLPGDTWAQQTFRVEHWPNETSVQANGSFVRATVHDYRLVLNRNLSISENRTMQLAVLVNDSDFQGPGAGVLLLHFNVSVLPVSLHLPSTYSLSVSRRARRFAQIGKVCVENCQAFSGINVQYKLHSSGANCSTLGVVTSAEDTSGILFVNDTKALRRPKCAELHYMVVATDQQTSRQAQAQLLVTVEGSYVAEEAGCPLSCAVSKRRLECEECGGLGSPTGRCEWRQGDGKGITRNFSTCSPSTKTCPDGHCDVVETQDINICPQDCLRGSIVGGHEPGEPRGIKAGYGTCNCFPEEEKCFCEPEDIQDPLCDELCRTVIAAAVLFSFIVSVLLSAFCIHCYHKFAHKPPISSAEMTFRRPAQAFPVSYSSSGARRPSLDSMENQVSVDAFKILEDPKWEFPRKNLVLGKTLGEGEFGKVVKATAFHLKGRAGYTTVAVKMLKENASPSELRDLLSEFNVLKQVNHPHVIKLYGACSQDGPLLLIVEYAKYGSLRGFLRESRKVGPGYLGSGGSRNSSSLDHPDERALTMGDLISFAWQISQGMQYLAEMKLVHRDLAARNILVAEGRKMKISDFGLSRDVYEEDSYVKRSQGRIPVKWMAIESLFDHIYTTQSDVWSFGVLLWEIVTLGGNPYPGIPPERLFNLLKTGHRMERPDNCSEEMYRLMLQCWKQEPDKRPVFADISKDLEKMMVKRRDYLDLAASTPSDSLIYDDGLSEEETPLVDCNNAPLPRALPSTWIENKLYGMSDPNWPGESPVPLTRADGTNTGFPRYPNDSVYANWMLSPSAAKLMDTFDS
T2 sequence (P07949 whole entry, change not shown, the tested form may be a part): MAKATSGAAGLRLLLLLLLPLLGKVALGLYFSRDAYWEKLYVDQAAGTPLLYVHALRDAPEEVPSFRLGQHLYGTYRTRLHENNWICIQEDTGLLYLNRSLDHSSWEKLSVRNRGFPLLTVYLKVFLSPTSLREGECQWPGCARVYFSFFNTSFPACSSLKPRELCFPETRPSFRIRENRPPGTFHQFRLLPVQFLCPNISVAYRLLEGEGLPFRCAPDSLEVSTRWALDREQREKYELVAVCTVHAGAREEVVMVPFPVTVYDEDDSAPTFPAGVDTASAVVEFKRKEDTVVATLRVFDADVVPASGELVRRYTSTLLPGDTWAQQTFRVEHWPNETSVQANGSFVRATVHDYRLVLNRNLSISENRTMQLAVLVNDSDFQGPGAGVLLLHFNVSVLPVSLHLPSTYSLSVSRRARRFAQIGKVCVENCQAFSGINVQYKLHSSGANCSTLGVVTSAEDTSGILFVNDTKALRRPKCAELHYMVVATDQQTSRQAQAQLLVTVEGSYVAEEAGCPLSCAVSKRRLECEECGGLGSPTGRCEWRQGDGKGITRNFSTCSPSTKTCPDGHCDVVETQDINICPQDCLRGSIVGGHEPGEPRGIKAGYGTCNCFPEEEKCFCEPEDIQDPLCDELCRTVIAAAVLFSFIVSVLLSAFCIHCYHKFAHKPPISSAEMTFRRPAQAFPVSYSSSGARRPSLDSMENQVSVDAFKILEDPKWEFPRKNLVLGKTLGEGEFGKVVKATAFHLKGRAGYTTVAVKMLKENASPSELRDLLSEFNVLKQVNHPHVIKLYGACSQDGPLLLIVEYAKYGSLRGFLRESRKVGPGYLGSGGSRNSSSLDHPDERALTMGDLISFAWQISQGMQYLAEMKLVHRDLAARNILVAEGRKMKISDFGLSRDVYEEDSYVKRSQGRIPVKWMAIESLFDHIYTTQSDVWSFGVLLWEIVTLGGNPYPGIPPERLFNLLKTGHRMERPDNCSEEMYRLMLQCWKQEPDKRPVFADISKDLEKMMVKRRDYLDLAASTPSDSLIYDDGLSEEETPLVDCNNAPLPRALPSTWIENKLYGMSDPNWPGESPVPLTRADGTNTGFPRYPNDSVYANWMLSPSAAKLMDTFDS

In the case of `COc1ccc(C(=O)N[C@@H]2C[C@@H]3CN(c4cnc(-c5cc(OCC(C)(C)O)cn6ncc(C#N)c56)cn4)C[C@@H]3C2)cn1` [Example 110, N-((3aR,5r,6aS)-2-(5-(3-cyano-6-(2-hydroxy-2-methylpropoxy)pyrazolo[1,5-a]pyridin-4-yl)pyrazin-2-yl)octahydrocyclopenta[c]pyrrol-5-yl)-6-methoxynicotinamide], in assay [1], the IC50 is 50 to 100 nM. In assay [2], the GI50 is > 100 nM.
Turning to `CC(=O)NC12CC3CC(C1)N(c1cnc(-c4cc(-c5cnn(C)c5)cn5ncc(C#N)c45)cn1)C(C3)C2` [Example 111, N-((1R,3S,5s,7s)-2-(5-(3-cyano-6-(1-methyl-1H-pyrazol-4-yl)pyrazolo[1,5-a]pyridin-4-yl)pyrazin-2-yl)-2-azaadamantan-5-yl)acetamide], the IC50 in assay [1] is ≤ 10 nM. Also, in assay [2], the GI50 was ≤ 10 nM.
With `Cn1cc(-c2cc(-c3cnc(N4C5CC6CC4CC(NC(=O)c4ncccc4Cl)(C6)C5)cn3)c3c(C#N)cnn3c2)cn1` [Example 112, 3-chloro-N-((1R,3S,5s,7s)-2-(5-(3-cyano-6-(1-methyl-1H-pyrazol-4-yl)pyrazolo[1,5-a]pyridin-4-yl)pyrazin-2-yl)-2-azaadamantan-5-yl)picolinamide], in assay [1], the IC50 is ≤ 10 nM. In addition, the GI50 in assay [2] is ≤ 10 nM.
In the case of `COc1ccc(NC(=O)[C@]2(C)C[C@H]3CN(c4ccc(-c5cc(-c6ccn(C)n6)cn6ncc(C#N)c56)cn4)C[C@H]3C2)cn1` [Example 113, (3aR,5s,6aS)-2-(5-(3-cyano-6-(1-methyl-1H-pyrazol-3-yl)pyrazolo[1,5-a]pyridin-4-yl)pyridin-2-yl)-N-(6-methoxypyridin-3-yl)-5-methyloctahydrocyclopenta[c]pyrrole-5-carboxamide], the IC50 in assay [1] is ≤ 10 nM. For the same compound, the GI50 in assay [2] was ≤ 10 nM.
With `CC(C)(O)COc1cc(-c2ccc(N3C[C@@H]4C[C@](C)(NC(=O)c5ncccc5Cl)C[C@@H]4C3)nc2)c2c(C#N)cnn2c1` [Example 115, 3-chloro-N-((3aR,5r,6aS)-2-(5-(3-cyano-6-(2-hydroxy-2-methylpropoxy)pyrazolo[1,5-a]pyridin-4-yl)pyridin-2-yl)-5-methyloctahydrocyclopenta[c]pyrrol-5-yl)picolinamide], the half-maximal inhibitory concentration (IC50) in assay [1] was ≤ 10 nM. Besides, the GI50 in assay [2] fell in the range of 10 to 50 nM.
Turning to `COc1ccc(NC(=O)[C@@]2(C)C[C@H]3CN(c4ccc(-c5cc(OCC(C)(C)O)cn6ncc(C#N)c56)cn4)C[C@H]3C2)cn1` [Example 116, (3aR,5r,6aS)-2-(5-(3-cyano-6-(2-hydroxy-2-methylpropoxy)pyrazolo[1,5-a]pyridin-4-yl)pyridin-2-yl)-N-(6-methoxypyridin-3-yl)-5-methyloctahydrocyclopenta[c]pyrrole-5-carboxamide], the half-maximal inhibitory concentration (IC50) in assay [1] is 10 to 50 nM. In assay [2], the GI50 was > 100 nM.
`COc1ccc(CN2[C@@H]3CC[C@H]2[C@H]2CN(c4ccc(-c5cc(OCC(C)(C)O)cn6ncc(C#N)c56)cn4)C[C@H]23)cn1` [Example 117, 6-(2-hydroxy-2-methylpropoxy)-4-(6-((3aR,4S,7R,7aS)-8-((6-methoxypyridin-3-yl)methyl)hexahydro-1H-4,7-epiminoisoindol-2(3H)-yl)pyridin-3-yl)pyrazolo[1,5-a]pyridine-3-carbonitrile]: the IC50 in assay [1] lay in the range of 10 to 50 nM. For the same compound, the GI50 in assay [2] is > 100 nM.
As to `COc1ccc(CN2[C@@H]3CC[C@H]2[C@H]2CN(c4ccc(-c5cc(-c6cnn(C)c6)cn6ncc(C#N)c56)cn4)C[C@H]23)cn1` [Example 118, 4-(6-((3aR,4S,7R,7aS)-8-((6-methoxypyridin-3-yl)methyl)hexahydro-1H-4,7-epiminoisoindol-2(3H)-yl)pyridin-3-yl)-6-(1-methyl-1H-pyrazol-4-yl)pyrazolo[1,5-a]pyridine-3-carbonitrile], the IC50 in assay [1] was ≤ 10 nM. Moreover, the GI50 in assay [2] lay in the range of 10 to 50 nM.
In the case of `COc1ccc(CNC(=O)[C@H]2[C@@H]3CN(c4ccc(-c5cc(OCC(C)(C)O)cn6ncc(C#N)c56)cn4)C[C@@H]32)cn1` [Example 119, (1R,5S,6r)-3-(5-(3-cyano-6-(2-hydroxy-2-methylpropoxy)pyrazolo[1,5-a]pyridin-4-yl)pyridin-2-yl)-N-((6-methoxypyridin-3-yl)methyl)-3-azabicyclo[3.1.0]hexane-6-carboxamide], in assay [1], the IC50 was ≤ 10 nM. In assay [2], the GI50 lay within 50 to 100 nM.
Turning to `COc1ccc(CN2C[C@@H]3CN(c4cnc(-c5cc(OCC(C)(C)O)cn6ncc(C#N)c56)cn4)C[C@@H]3C2)cn1` [Example 120, 6-(2-hydroxy-2-methylpropoxy)-4-(5-((3aR,6aS)-5-((6-methoxypyridin-3-yl)methyl)hexahydropyrrolo[3,4-c]pyrrol-2(1H)-yl)pyrazin-2-yl)pyrazolo[1,5-a]pyridine-3-carbonitrile], the IC50 in assay [1] was ≤ 10 nM. In assay [2], the GI50 was in the range of 10 to 50 nM.
For `CC(C)(O)COc1cc(-c2ccc(N3C[C@@H]4[C@@H](CNC(=O)c5c(F)cccc5Cl)[C@@H]4C3)nc2)c2c(C#N)cnn2c1` [Example 125, 2-chloro-N-(((1R,5S,6s)-3-(5-(3-cyano-6-(2-hydroxy-2-methylpropoxy)pyrazolo[1,5-a]pyridin-4-yl)pyridin-2-yl)-3-azabicyclo[3.1.0]hexan-6-yl)methyl)-6-fluorobenzamide], the IC50 in assay [1] is ≤ 10 nM. For the same compound, in assay [2], the GI50 is ≤ 10 nM.
For the compound `CC(C)(O)COc1cc(-c2ccc(N3C[C@@H]4[C@H](C3)[C@H]4C(C)(C)NC(=O)c3ncccc3Cl)nc2)c2c(C#N)cnn2c1` [Example 129, 3-chloro-N-(2-((1R,5S,6r)-3-(5-(3-cyano-6-(2-hydroxy-2-methylpropoxy)pyrazolo[1,5-a]pyridin-4-yl)pyridin-2-yl)-3-azabicyclo[3.1.0]hexan-6-yl)propan-2-yl)picolinamide], the IC50 in assay [1] fell in the range of 10 to 50 nM. Moreover, in assay [2], the GI50 lay in the range of 50 to 100 nM.
In the case of `COc1ccc(NC(=O)C23CC4CC(C2)N(c2ccc(-c5cc(OCC(C)(C)O)cn6ncc(C#N)c56)cn2)C(C4)C3)cn1` [Example 133, (1R,3S,5s,7s)-2-(5-(3-cyano-6-(2-hydroxy-2-methylpropoxy)pyrazolo[1,5-a]pyridin-4-yl)pyridin-2-yl)-N-(6-methoxypyridin-3-yl)-2-azaadamantane-5-carboxamide], in assay [1], the IC50 is ≤ 10 nM. The GI50 in assay [2] was 10 to 50 nM.
Regarding `CCOc1cc(-c2ccc(N3C4CC5CC3CC(NC(=O)c3ccc(OC)nc3)(C5)C4)nc2)c2c(C#N)cnn2c1` [Example 139, N-((1R,3S,5s,7s)-2-(5-(3-cyano-6-ethoxypyrazolo[1,5-a]pyridin-4-yl)pyridin-2-yl)-2-azaadamantan-5-yl)-6-methoxynicotinamide], the half-maximal inhibitory concentration (IC50) in assay [1] is ≤ 10 nM. Further, the GI50 in assay [2] was 50 to 100 nM.
Turning to `CC(C)(O)COc1cc(-c2cnc(N3C[C@@H]4C[C@@](C)(NC(=O)c5c(F)cccc5Cl)C[C@@H]4C3)cn2)c2c(C#N)cnn2c1` [Example 144, 2-chloro-N-((3aR,5s,6aS)-2-(5-(3-cyano-6-(2-hydroxy-2-methylpropoxy)pyrazolo[1,5-a]pyridin-4-yl)pyrazin-2-yl)-5-methyloctahydrocyclopenta[c]pyrrol-5-yl)-6-fluorobenzainide], the half-inhibitory concentration (IC50) in assay [1] was ≤ 10 nM. The GI50 in assay [2] was ≤ 10 nM.

As a reminder, the IC50 is the concentration that gives 50% inhibition. Read a low IC50 as inhibition by little substance.
